Measurements as given in patent publication US10473645B2, “Methods for identifying a receptor for a ligand and uses thereof” (UNIVERSITE DE GENEVE, priority 2014, dated 2019).

Assays:
Olfr1377 = test: OR transcript level by RT-qPCR after in vivo odorant exposure; parameters: species or system mouse; key to olfr1377 candidate OR (RNAseq) confirmed by qPCR: The transcript downregulation of 21 out of the 26 olfactory receptor candidates obtained by RNAseq was confirmed by qPCR; false RNAseq positive candidates, namely OR candidates for which in fact mRNA was not downregulated following acetophenone exposure; settings: for Olfr1377 mRNA level relative to unexposed controls: 5% odorant, 5 hours, in vivo, RT-qPCR
Experimental: (§1) In vivo exposure to odorant: Starting 48 h before experiments, mice were habituated to pure DMSO on a cotton ball. 200 μl were pipetted directly onto the cotton and placed in the cage, replacing any cotton that was already in the cage for nest-making purposes.
(§2) On the day of the experiment, mice receiving odorants were transferred to a different room, where they were exposed to a cotton ball on which 200 μl of odorant diluted in pure DMSO were deposited. Exposures started in the morning between 8 and 10 am (that is two hours after lights were on) and mice were killed and dissected between 1 and 3 pm. […] If a number of different odorants were tested in the same experiment, a different overpressurized room would always be used for each odorant to avoid odor cross-contamination.
(§3) After odorant exposure, mice were killed by cervical dislocation and immediately decapitated. The main olfactory epithelia (MOE), were harvested in their entirety and transferred to a tube containing 600 μl of lysis buffer and β-mercaptoethanol (RNAeasy kit, Qiagen, following the manufacturer protocol) and a 0.5 cm diameter steel ball, and then put on ice. Samples were then homogenized using a FastPrep®-24 instrument (MP Biomedicals) at 6 m/s for 30 s and left on ice. RNA extraction was performed on all samples in parallel using the Qiagen RNeasy Mini® kit following the manufacturer's instructions. Two DNase treatments were performed on all samples: first using the Qiagen RNase-Free DNase Set® and then using the Life Technologies Ambion DNase I® kit. RNA samples were then aliquoted and stored at −80° C.
(§4) RNA concentrations were determined using an Amersham Ultrospec® 3100 Pro spectrophotometer, and RNA quality was evaluated with an Agilent Technologies 2100 Bioanalyzer®. […]
(§5) qPCR Ct values were analyzed using an in-house developed Microsoft Excel® macro file. […] Ct values were converted to quantities relative to the maximum for each given gene. Selected reference genes were then analyzed for variance using the geNorm algorithm. […]

Olfr983 = test: as above; parameters: species or system mouse; key to olfr983 candidate OR (RNAseq) confirmed by qPCR: The transcript downregulation of 21 out of the 26 olfactory receptor candidates obtained by RNAseq was confirmed by qPCR; false RNAseq positive candidates, namely OR candidates for which in fact mRNA was not downregulated following acetophenone exposure; settings: for Olfr983 mRNA level relative to unexposed controls: 5% odorant, 5 hours, in vivo, RT-qPCR
Experimental: as §1, §2, §3, §4, §5

Olfr730 = biological target: T1, Olfr730 (Mus musculus, UniProt A0A0U1RNX7); test: as above; settings: 5% odorant, 5 hours
T1 construct: from tissue; host or cells: olfactory epithelium of adult C57BL/6 mice
Experimental: as §1
On the day of the experiment, mice receiving odorants were transferred to a different room, where they were exposed to a cotton ball on which 200 μl of odorant diluted in pure DMSO were deposited. Exposures started in the morning between 8 and 10 am (that is two hours after lights were on) and mice were killed and dissected between 1 and 3 pm. […]
as §4, §5
Adult C57BL/6 mice were exposed to 5% acetophenone for 5 hours, and the level of transcripts of odorant receptors' genes were measured by RT-qPCR on extracts of olfactory epithelia from these mice, as described in the materials and methods section.

OSNs expressing olfr1135 = test: pS6 immunolabeling with OR in situ hybridization after odorant exposure; type: in vivo, mouse; parameters: key: y: neuronal activation (i.e. pS6 signal in a fraction of neuron exceeding 15% relative to controls); no pS6 signals; settings: 5% acetophenone, 60 minutes
Experimental: (§6) In order to independently validate the identity of an acetophenone receptor obtained with the RNAseq approach, the potential colocalization following acetophenone exposure of a neuronal activity marker (the phosphorylated ribosomal protein S6 (pS6) (Knight et al., 2012, Cell, 151, 1126-1137) and specific olfactory receptors were evaluated. To this aim, in-situ hybridizations were performed on sections of olfactory tissue with probes targeting receptor mRNAs followed by immunolabeling of pS6. The probes used were directed against the transcripts of most of the ORs determined as responsive including Olfr983 transcripts (encoding a known acetophenone receptor), Olfr171 transcripts (encoding a known ethyl isobutyrate receptor), and Olfr145 transcripts, encoding a newly identified receptor by RNAseq. Before analysis, mice were exposed to either 5% acetophenone, 5% ethyl isobutyrate, or a negative control condition for 60 minutes. […] 66% (Olfr983) and 70% (Olfr145) of the neurons were positive for pS6 after acetophenone exposure, while only 11% of the neurons expressing Olfr171 were positive for pS6 after exposure to this compound.

OSNs expressing olfr1350 = test: as above; type: in vivo, mouse; parameters: key: y: neuronal activation (i.e. pS6 signal in a fraction of neuron exceeding 15% relative to controls); no pS6 signals; settings: 5% acetophenone, 60 minutes
Experimental: as §6

OSNs expressing olfr378 = test: as above; type: in vivo, mouse; parameters: key: y: neuronal activation (i.e. pS6 signal in a fraction of neuron exceeding 15% relative to controls); no pS6 signals; settings: 5% acetophenone, 60 minutes
Experimental: as §6

OSNs expressing olfr490 = test: as above; type: in vivo, mouse; parameters: key: y: neuronal activation (i.e. pS6 signal in a fraction of neuron exceeding 15% relative to controls); no pS6 signals; settings: 5% acetophenone, 60 minutes
Experimental: as §6

OSNs expressing olfr750 = test: as above; type: in vivo, mouse; parameters: key: y: neuronal activation (i.e. pS6 signal in a fraction of neuron exceeding 15% relative to controls); no pS6 signals; settings: 5% acetophenone, 60 minutes
Experimental: as §6

Olfr160 = settings: dissociated neurons; previously shown; read-out: EC50 as agonist of Olfr160; cited from earlier work

T1 sequence (A0A0U1RNX7 1-317): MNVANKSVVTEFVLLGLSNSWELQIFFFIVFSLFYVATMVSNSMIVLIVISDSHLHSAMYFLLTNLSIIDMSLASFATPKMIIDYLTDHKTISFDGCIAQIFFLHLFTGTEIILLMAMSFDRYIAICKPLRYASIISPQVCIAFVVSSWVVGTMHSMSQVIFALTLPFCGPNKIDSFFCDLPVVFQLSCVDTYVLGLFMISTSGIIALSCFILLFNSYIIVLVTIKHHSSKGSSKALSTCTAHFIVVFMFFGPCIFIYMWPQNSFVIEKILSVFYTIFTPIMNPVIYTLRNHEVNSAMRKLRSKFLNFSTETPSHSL

CC(=O)c1ccccc1 [acetophenone]
olfr1377 candidate OR (RNAseq) confirmed by qPCR (Olfr1377; 5% acetophenone exposure): y
Olfr1377 mRNA level relative to unexposed controls (Olfr1377): decrease
Olfr1377 mRNA level relative to unexposed controls (Olfr1377; listed as Acetophenone): downregulates
olfr983 candidate OR (RNAseq) confirmed by qPCR (Olfr983; 5% acetophenone exposure): y
Olfr983 mRNA level relative to unexposed controls (Olfr983): decrease
Olfr983 mRNA level relative to unexposed controls (Olfr983; listed as Acetophenone): downregulates
Olfr730 mRNA concentration increase, fold change (Olfr730): 1.4 fold
olfr1135 ps6 positive (OSNs expressing olfr1135): n
olfr1350 ps6 positive (OSNs expressing olfr1350): n
olfr378 ps6 positive (OSNs expressing olfr378): n
olfr490 ps6 positive (OSNs expressing olfr490): n
olfr750 ps6 positive (OSNs expressing olfr750): n
EC50 (Olfr160): < 50 µM
